Source: PMC7082314 (Frontiers in Cellular and Infection Microbiology, 2020)

Biological target: BfpR-His6 (Francisella tularensis, UniProt A0Q7V5)
Details: 5 uM protein (printed 'Five micrometers'), 2X SYPRO Orange; heated to 95 °C

Chain of BfpR-His6 (A0Q7V5 1-229): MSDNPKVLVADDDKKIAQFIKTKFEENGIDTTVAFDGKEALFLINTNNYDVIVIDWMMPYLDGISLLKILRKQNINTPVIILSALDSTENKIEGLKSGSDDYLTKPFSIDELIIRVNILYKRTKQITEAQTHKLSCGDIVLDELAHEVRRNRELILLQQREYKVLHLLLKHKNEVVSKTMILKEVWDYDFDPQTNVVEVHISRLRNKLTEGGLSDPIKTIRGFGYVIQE

For `COc1ccc(O)c2ccccc12` [walrycin A, 4-methoxy-1-naphthol], the thermal shift was “a protein population not seen in the presence of the control compounds appears”.
